Data reported in ChEMBL document CHEMBL2034943, “Potentiating Metronidazole Scaffold against Resistant Trichomonas: Design, Synthesis, Biology and 3D-QSAR Analysis” (ACS Med Chem Lett, 2012).
Converted amounts (≈) assume the structure as drawn.

Legend:
Trichomonas vaginalis [1] = experiment: Antitrichomonas activity against metronidazole-susceptible Trichomonas vaginalis; assay type: functional
[2] = Toxicity against Lactobacillus jensenii ATCC 25258
Trichomonas vaginalis [3] = experiment: Antitrichomonas activity against metronidazole-resistant Trichomonas vaginalis ATCC 50143; assay type: functional
HeLa = experiment: Cytotoxicity against human HeLa cells; assay type: cell-based
Spermatozoa = experiment: Spermicidal activity against human spermatozoa assessed as immobilization measured for 60 seconds; assay type: functional; parameters: concentration or dose not given beside the values
Trichomonas vaginalis [4] = experiment: Ratio of MIC for metronidazole to compound for metronidazole-resistant Trichomonas vaginalis ATCC 50143; assay type: functional
Trichomonas vaginalis [5] = experiment: Ratio of MIC for metronidazole to compound for metronidazole-susceptible Trichomonas vaginalis; assay type: functional

Compound | MIC (Trichomonas vaginalis [1]) | MIC (Trichomonas vaginalis [3]) | IC50 [2] | IC50 (HeLa) | Activity (Spermatozoa) | Ratio (Trichomonas vaginalis [4]) | Ratio (Trichomonas vaginalis [5])
Cc1ncc([N+](=O)[O-])n1CCO [METRONIDAZOLE] | 11.7 µM (≈ 2 µg/mL) | 292 µM (≈ 50 µg/mL) | > 1000 µg/mL | > 1000 µg/mL | <100% |  | 
Cc1ncc([N+](=O)[O-])n1CCSC(=S)N1CCC(OS(C)(=O)=O)CC1 | 12.4 µM (≈ 5.07 µg/mL) | 61.3 µM (≈ 25 µg/mL) | > 1000 µg/mL | > 1000 µg/mL | 100% |  | 
Cc1ncc([N+](=O)[O-])n1CCSC(=S)N1CCC(C)CC1 | 1.03 µM (≈ 0.338 µg/mL) | 14.3 µM (≈ 4.7 µg/mL) | > 1000 µg/mL | 190 µg/mL (≈ 578 µM) | 100% | 20 | 10
Cc1ncc([N+](=O)[O-])n1CCSC(=S)N1CCC(Cc2ccccc2)CC1 | 12.4 µM (≈ 5.02 µg/mL) | 49.5 µM (≈ 20 µg/mL) | > 1000 µg/mL | > 1000 µg/mL | 100% |  | 
CCCCCCCCCc1ccc(OCCOCCOCCOCCOCCOCCOCCOCCOCCO)cc1 [NONOXYNOL 9] |  |  | 33 µg/mL (≈ 53.5 µM) | 33 µg/mL (≈ 53.5 µM) | 100% |  | 
Cc1ncc([N+](=O)[O-])n1CCSC(=S)N1C(C)CCCC1C (stereo not drawn) | 1.83 µM (≈ 0.627 µg/mL) | 29.2 µM (≈ 10 µg/mL) | > 1000 µg/mL | 130 µg/mL (≈ 380 µM) | 100% | 10 | 3
Cc1ncc([N+](=O)[O-])n1CCSC(=S)N1CCC(OC(=O)CCl)CC1 | 49.3 µM (≈ 20.1 µg/mL) | 246 µM (≈ 100 µg/mL) | 590 µg/mL (≈ 1450 µM) | 930 µg/mL (≈ 2290 µM) | 100% |  | 
Cc1ncc([N+](=O)[O-])n1CCSC(=S)N1CCCCC1C (stereo not drawn) | 1.9 µM (≈ 0.624 µg/mL) | 15.2 µM (≈ 4.99 µg/mL) | > 1000 µg/mL | 170 µg/mL (≈ 518 µM) | 100% | 10 | 3
Cc1ncc([N+](=O)[O-])n1CCSC(=S)N1CCCC(C)C1 (stereo not drawn) | 1.9 µM (≈ 0.624 µg/mL) | 15.2 µM (≈ 4.99 µg/mL) | > 1000 µg/mL | 170 µg/mL (≈ 518 µM) | 100% | 10 | 3
CCC1CCCCN1C(=S)SCCn1c([N+](=O)[O-])cnc1C (stereo not drawn) | 3.65 µM (≈ 1.25 µg/mL) | 14.6 µM (≈ 5 µg/mL) | > 1000 µg/mL | 94 µg/mL (≈ 274 µM) | 100% | 10 | 3

More lines, in order of falling MIC (Trichomonas vaginalis [1]), values ahead:

MIC (Trichomonas vaginalis [1]) | MIC (Trichomonas vaginalis [3]) | Compound | IC50 [2] | IC50 (HeLa) | Activity (Spermatozoa) | Ratio (Trichomonas vaginalis [4]) | Ratio (Trichomonas vaginalis [5])
3.24 µM (≈ 1.25 µg/mL) | 64.8 µM (≈ 25 µg/mL) | CCOC(=O)C1CCN(C(=S)SCCn2c([N+](=O)[O-])cnc2C)CC1 | > 1000 µg/mL | 510 µg/mL (≈ 1320 µM) | 100% |  | 
2.41 µM (≈ 1.25 µg/mL) | 96.7 µM (≈ 50.1 µg/mL) | Cc1ncc([N+](=O)[O-])n1CCSC(=S)N1CCC(OC(=O)CSC(=S)N2CCCC2)CC1 | > 1000 µg/mL | > 1000 µg/mL | <100% |  | 
2.35 µM (≈ 1.25 µg/mL) | 37.7 µM (≈ 20 µg/mL) | Cc1ncc([N+](=O)[O-])n1CCSC(=S)N1CCC(OC(=O)CSC(=S)N2CCCCC2)CC1 | > 1000 µg/mL | 980 µg/mL (≈ 1840 µM) | <100% |  | 
1.9 µM (≈ 0.708 µg/mL) | 26.9 µM (≈ 10 µg/mL) | Cc1ncc([N+](=O)[O-])n1CCSC(=S)N1CCC2(CC1)OCCO2 | > 1000 µg/mL | > 1000 µg/mL | <100% |  | 
1.89 µM (≈ 0.621 µg/mL) | 30.5 µM (≈ 10 µg/mL) | Cc1ncc([N+](=O)[O-])n1CCSC(=S)N1CCC(=O)CC1 | 380 µg/mL (≈ 1160 µM) | > 1000 µg/mL | <100% |  | 
1.68 µM (≈ 0.698 µg/mL) | 24.1 µM (≈ 10 µg/mL) | Cc1ncc([N+](=O)[O-])n1CCSC(=S)N1CCC(C#N)(c2ccccc2)CC1 | > 1000 µg/mL | > 1000 µg/mL | <100% |  | 
1.53 µM (≈ 0.675 µg/mL) | 56.7 µM (≈ 25 µg/mL) | Cc1ncc([N+](=O)[O-])n1CCSC(=S)N1CCC(OC(=O)C(Cl)Cl)CC1 | 740 µg/mL (≈ 1680 µM) | > 1000 µg/mL | 100% |  | 
1.41 µM (≈ 0.466 µg/mL) | 30.3 µM (≈ 10 µg/mL) | Cc1ncc([N+](=O)[O-])n1CCSC(=S)N1CCC(O)CC1 | 350 µg/mL (≈ 1060 µM) | 930 µg/mL (≈ 2810 µM) | 100% |  | 
1.37 µM (≈ 0.624 µg/mL) | 54.9 µM (≈ 25 µg/mL) | Cc1ncc([N+](=O)[O-])n1CCSC(=S)N1CCC(OC(=O)CN2CCCCC2)CC1 | > 1000 µg/mL | 760 µg/mL (≈ 1670 µM) | <100% |  | 
1.36 µM (≈ 0.622 µg/mL) | 54.7 µM (≈ 25 µg/mL) | Cc1ncc([N+](=O)[O-])n1CCSC(=S)N1CCC(OC(=O)CN2CCOCC2)CC1 | > 1000 µg/mL | 840 µg/mL (≈ 1840 µM) | <100% |  | 
